The values that follow are results of earlier work, collected in patent US12551426B2, “Method for treating hair, comprising the application of a first agent (a) having a silane and a chromophoric compound, and a second agent (b) having a film-forming polymer” (Henkel AG & Co. KGaA, priority 2018, dated 2026).

The conditions of this series: 25° C.

In the case of `O=S(=O)([O-])c1ccc(N=Nc2c(O)ccc3ccccc23)cc1.[Na+]` [Acid Orange 7, sodium salt of 4-[(2-hydroxy-1-naphthyl)azo]benzene sulphonate], the solubility in water entry is given as “more than 7 g/L”.

As to `Nc1cc(S(=O)(=O)[O-])cc2cc(S(=O)(=O)[O-])c(N=Nc3ccccc3)c(O)c12.[Na+].[Na+]` [Acid Red 33, diantrium salt of 5-amino-4-hydroxy-3-(phenylazo)-naphthalene-2,7-disulphonate], the solubility in water was 2.5 mg/mL.

`O=C([O-])c1c(Cl)c(Cl)c(Cl)c(Cl)c1-c1c2c(Br)cc(=O)c(Br)c-2oc2c(Br)c(O)cc(Br)c12.O=C([O-])c1c(Cl)c(Cl)c(Cl)c(Cl)c1-c1c2c(Br)cc(=O)c(Br)c-2oc2c(Br)c(O)cc(Br)c12.[Na+].[Na+]` [Acid Red 92, disodium salt of 3,4,5,6-tetrachloro-2-(1,4,5,8-tetrabromo-6-hydroxy-3-oxoxanthen-9-yl)benzoic acid]: the solubility in water result is “greater than 10 g/L”.

Turning to `O=C([O-])C1=NN(c2ccc(S(=O)(=O)[O-])cc2)C(=O)C1N=Nc1ccc(S(=O)(=O)[O-])cc1.[Na+].[Na+].[Na+]` (centres unmarked) [Acid Yellow 23, trisodium salt of 4,5-dihydro-5-oxo-1-(4-sulfophenyl)-4-((4-sulfophenyl)azo)-1H-pyrazole-3-carboxylic acid], the “solubility in water (in words)” value is on record as “highly soluble in water”.

With Acid Yellow 3, the solubility in water is 20 mg/mL.
